The source of these data is patent publication US20230271959A1, “HETEROCYCLIC COMPOUND AS BCL-2 INHIBITOR” (Beijing Innocare Pharma Tech Co., Ltd., priority 2020, published 2023).

Experiment [1] deals with T1, human recombinant Bcl-2 protein (Homo sapiens, UniProt P10415).
T1 construct: purchased Beijing Yigiao Shenzhou Biotechnology Co., Ltd. 10195-HOSE
Nature of the experiment: Fluorescence polarization test for inhibition of BCL-2 binding to FITC-BIM. To be noted: 5 nM BCL-2, 5 nM FITC-BIM, read-out: FP BCL-2 IC50. How it is done: Fluorescence polarization assay was used to evaluate the effect of the compounds of the present invention on the biological activity of BCL-2.
The effects of the compounds on the biological activity of BCL-2 were evaluated by determining the effects of the compounds on the binding activity of BCL-2 to leukemia pro-apoptotic protein (BIM) using an affinity assay method based on the principle of fluorescence polarization. The reaction buffer comprises the following components: PBS (pH 7.4, 3 mM Na2HPO4, 155 mM NaCl, 1 mM KH2PO4), 1 mM DTT; human recombinant Bcl-2 protein (Item No. 10195-HOSE) (purchased from Beijing Yigiao Shenzhou Biotechnology Co., Ltd.) was diluted to 5 nM with the reaction buffer; FITC-labeled BIM polypeptide (purchased from Nanjing GenScript Biotechnology Co., Ltd.) was diluted to 5 nM with the reaction buffer.
The compounds were dissolved in 100% DMSO and diluted to 0.1, 1, 10 μM, followed by 4-fold serial dilutions with DMSO to a minimum concentration of 0.0061, 0.061, 0.61 nM, each concentration point was further diluted 50-fold with the reaction buffer.
3 μL of solution containing the compound and 12 μL of solution containing BCL-2 were added to the black 384-well assay plate, mixed well, and incubated at room temperature for 15 minutes. Subsequently, 15 μL of FITC-BIM solution was added, and the reaction mixture was incubated at room temperature for 30 minutes in dark place, and then the fluorescence polarization was detected immediately on an Envision multi-mode reader (Perkin Elmer), with 480 nm as the excitation wavelength and 535 nm as the emission wavelength. In this experiment, the group without BCL-2 protein was used as a negative control (100% inhibition), and the group with BCL-2 protein but without the compound was used as a positive control (0% inhibition). The inhibition percentage of the compound to the affinity of BCL-2 can be calculated using the following equation: […]
(§1) The IC50 of the compound was calculated from 8 concentration points using XLfit (ID Business Solutions Ltd., UK) software by the following equation:
(§2) Y=Bottom+(Top−Bottom)/(1+10^((log IC50−X)*slope factor))
(§3) where Y is the inhibition percentage, X is the logarithm of the concentration of the compound to be tested, Bottom is the maximum inhibition percentage, Top is the minimum inhibition percentage, and slope factor is the slope coefficient of the curve.

Experiment [2] deals with RS4;11 cells (acute lymphoblastic leukemia cells). Nature of the experiment: RS4;11 cell proliferation, CellTilter-Glo luminescence cell viability assay. It is filed as cell-based. To be noted: CTG readout after 48 hours. The method, then: The effects of the compounds of the present invention on the proliferation of RS4;11 cells were evaluated using a luminescence cell viability assay.
A CellTilter-Glo (CTG) Assay Kit is used to detect ATP, a key indicator of the metabolism of living cells, through a unique, highly sensitive and stable luciferase. The luminescent signal generated in the assay is proportional to the number of the viable cells in the medium, therefore the cell proliferation of RS4;11 can be determined.
CellTilter-Glo reagent (Promega, G7572) is composed of CellTilter-Glo lyophilized powder and CellTilter-Glo buffer, and the lyophilized powder can be dissolved in the buffer for use.
RS4;11 cells (ATCC, CRL-1873) were cultured in RPMI1640 complete medium (Thermofisher, 72400-047) containing 10% FBS (GBICO, 10099-141) and 100 units/ml penicillin-streptomycin solution (Thermofisher, 15140122)), when the cells covered 80-90% in the culture vessel, they were digested and dispersed with 0.25% trypsin (containing EDTA) (Thermofisher, 25200056) and then planted in a white 384-well plate (Thermofisher, 164610), and then the 384-well plate was incubated overnight in a 37° C., 5% CO2 incubator. Compounds were dissolved in 100% DMSO and diluted to […], followed by 4-fold serial dilutions with DMSO to a minimum concentration of 0.061 μM, and each concentration point was further diluted 50-fold with FBS-free RPMI1640 medium. If the IC50 of the compound is very low, the initial concentration of the compound can be reduced. After overnight, 3 μL of the compound diluted in the medium was added to each well, and the mixture was gently centrifuged to mix. The group without cells was used as a negative control (100% inhibition), and the group with 0.2% DMSO was used as a positive control (0% inhibition). The 384-well plate was placed in a 37° C., 5% CO2 incubator for further cultivation. After 48 hours, the plate was taken out and equilibrated to room temperature. 15 μl of CTG reagent was added to each well, the plate was shaken gently for 3 minutes to make sure that the cell lysis was carried out thoroughly, then the plate was kept for 10 minutes to stabilize the luminescence signal, then the luminescence signal was read by EnVision (Perkin Elmer).
The inhibition percentage of the compounds to RS4;11 cell proliferation can be calculated using the following equation:
Inhibition Percentage=100−100*(signal compound-signal negative control)/(signal positive control-signal negative control)
as §1
Y=Bottom+(Top−Bottom)/(1+10^((Log IC50−X)*slope factor))
wherein, Y is the inhibition percentage, Bottom is the bottom plateau of the curve (the bottom plateau value of the S-shaped curve), Top is the top plateau of the curve (the top plateau value of the S-shaped curve), and X is the logarithm of the concentration of the compound to be tested.

For experiment [3], the target named is T2, human recombinant Bcl-XL protein (Homo sapiens, UniProt Q07817).
T2 construct: purchased Beijing Yiqiao Shenzhou Biotechnology Co., Ltd. 10455-H0SE
T2 sequence (Q07817 whole entry): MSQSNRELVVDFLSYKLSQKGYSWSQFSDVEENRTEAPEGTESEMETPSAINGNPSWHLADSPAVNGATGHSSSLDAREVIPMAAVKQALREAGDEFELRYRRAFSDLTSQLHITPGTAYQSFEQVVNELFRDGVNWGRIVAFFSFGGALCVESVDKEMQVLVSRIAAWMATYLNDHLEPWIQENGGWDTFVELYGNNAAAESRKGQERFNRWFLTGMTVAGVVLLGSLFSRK
Nature of the experiment: Fluorescence polarization test for inhibition of BCL-XL binding to FITC-BIM. To be noted: 10 nM BCL-XL, 10 nM FITC-BIM, read-out: FP BCL-XL IC50. The method, then:
Fluorescence polarization assay was used to evaluate the effect of the compounds of the present invention on the biological activity of BCL-XL.
The effects of the compounds on the biological activity of BCL-XL were evaluated by detecting the effects of the compounds on the binding activity of BCL-XL to BIM using an affinity assay method based on the principle of fluorescence polarization. The reaction buffer contains the following components: PBS (pH 7.4, 3 mM Na2HPO4, 155 mM NaCl, 1 mM KH2PO4), 1 mM DTT; human recombinant Bcl-XL protein (Item No. 10455-H0SE) (purchased from Beijing Yiqiao Shenzhou Biotechnology Co., Ltd.) was diluted to 10 nM with reaction buffer; FITC-labeled BIM polypeptide (purchased from Nanjing GenScript Biotechnology Co., Ltd) was diluted to 10 nM with reaction buffer.
The compounds were dissolved in 100% DMSO and diluted to 1 μM, followed by 4-fold serial dilutions in DMSO to a minimum concentration of 0.061 nM, each concentration point was further diluted 50-fold with reaction buffer.
3 μL of solution containing the compound and 12 μL of solution containing BCL-XL were added to the black 384-well assay plate, mixed well, and incubated at room temperature for 15 minutes. Subsequently, 15 μL of FITC-BIM solution was added, and the reaction mixture was incubated at room temperature for 30 minutes in the dark place, and then the fluorescence polarization was detected immediately on an Envision multi-plate reader (Perkin Elmer), with 480 nm as the excitation wavelength and 535 nm as the emission wavelength. In this experiment, the group without BCL-XL protein was used as a negative control (100% inhibition), and the group with BCL-XL protein but without the compound was added as a positive control (0% inhibition). The inhibition percentage of the compound to the affinity of BCL-XL can be calculated using the following equation: […]
as §1, §2, §3

T1 sequence (P10415 whole entry): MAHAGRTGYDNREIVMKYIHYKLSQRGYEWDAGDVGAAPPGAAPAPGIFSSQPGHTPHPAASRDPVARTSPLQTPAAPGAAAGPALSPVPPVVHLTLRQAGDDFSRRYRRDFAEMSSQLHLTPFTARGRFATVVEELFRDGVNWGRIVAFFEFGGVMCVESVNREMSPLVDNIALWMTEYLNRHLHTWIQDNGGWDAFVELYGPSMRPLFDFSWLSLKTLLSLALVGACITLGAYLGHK

With “2-((1H-Pyrrolo[2,3-b]pyridin-5-yl) oxy)-4-((R)-4-(((S)-4′-chloro-5- methyl-3,4,5,6-tetrahydro-[1,1′-biphenyl]- 2-yl)methyl)-2-methylpiperazn-1- yl)-N-((3-nitro-4-((((S)-4-(3-oxetan yl)morpholin-2-yl)methyl)amino) phenyl)sulfonyl)benzamide [Example 18]”, the IC50 in experiment [1] was 1.32 nM; in experiment [2], 2.4 nM; in experiment [3], greater than 1000 nM.
In the case of `C[C@@H]1CN(c2ccc(C(=O)NS(=O)(=O)c3cc(F)c(NCC4CCOCC4)c([N+](=O)[O-])c3)c(Oc3cnc4[nH]ccc4c3)c2)CCN1CC1=C(c2ccc(Cl)cc2)CC(C)(C)CC1` [Example 1, (R)-2-((1H-pyrrolo[2,3-b]pyridin-5-yl)oxy)-4-(4-((4′-chloro-5,5-dimethyl-3,4,5,6-tetrahydro-[1,1′-biphenyl]-2-yl)methyl)-3-methylpiperazin-1-yl)-N-((3-fluoro-5-nitro-4-(((tetrahydro-2H-pyran-4-yl)methyl)amino)phenyl)sulfonyl)benzamide], the IC50 in experiment [1] is 2.05 nM; in experiment [2] (Homo sapiens, RS4-11), 4.73 nM; in experiment [3], greater than 1000 nM.
On the same counts, the results for `C[C@@H]1CN(c2ccc(C(=O)NS(=O)(=O)c3ccc(NCC4CCOCC4)c([N+](=O)[O-])c3)c(Oc3cnc4[nH]ccc4c3)c2)CCN1CC1=C(c2ccc(Cl)cc2)CC(C)(C)CC1` [Example 2, (R)-2-((1H-pyrrolo[2,3-b]pyridin-5-yl)oxy)-4-(4-((4′-chloro-5,5-dimethyl-3,4,5,6-tetrahydro-[1,1′-biphenyl]-2-yl)methyl)-3-methylpiperazin-1-yl)-N-((3-nitro-4-(((tetrahydro-2H-pyran-4-yl)methyl)amino)phenyl)sulfonyl) benzamide] are 2.56 nM, 11.1 nM and greater than 1000 nM.
`C[C@@H]1CN(c2ccc(C(=O)NS(=O)(=O)c3ccc(NCC4CCN(C5COC5)CC4)c([N+](=O)[O-])c3)c(Oc3cnc4[nH]ccc4c3)c2)CCN1CC1=C(c2ccc(Cl)cc2)CC(C)(C)CC1` [Example 3, (R)-2-((1H-pyrrolo[2,3-b]pyridin-5-yl)oxy)-4-(4-((4′-chloro-5,5-dimethyl-3,4,5,6-tetrahydro-[1,1′-biphenyl]-2-yl)methyl)-3-methylpiperazin-1-yl)-N-((3--nitro-4(((1-(3-oxetanyl)piperidin-4-yl)methyl)amino)phenyl)sulfonyl) benzamide]: the IC50 in experiment [1] is 3.06 nM; in experiment [2] (Homo sapiens, RS4-11), 6.4 nM; in experiment [3], greater than 1000 nM.
In the same order, the values of `C[C@@H]1CN(c2ccc(C(=O)NS(=O)(=O)c3cc(F)c(NCC4CCN(C5COC5)CC4)c([N+](=O)[O-])c3)c(Oc3cnc4[nH]ccc4c3)c2)CCN1CC1=C(c2ccc(Cl)cc2)CC(C)(C)CC1` [Example 4, (R)-2-((1H-pyrrolo[2,3-b]pyridin-5-yl)oxy)-4-(4-((4′-chloro-5,5-dimethyl-3,4,5,6-tetrahydro-[1,1′-biphenyl]-2-yl)methyl)-3-methylpiperazin-1-yl)-N-((3-fluoro-5-nitro-4-(((1-(3-oxetanyl)piperidin-4-yl)methyl)amino)phenyl)sulfonyl) benzamide] are 2.29 nM, 5.8 nM and 743 nM.
On the same counts, the results for `C[C@@H]1CN(c2ccc(C(=O)NS(=O)(=O)c3ccc(NC[C@H]4COCCO4)c([N+](=O)[O-])c3)c(Oc3cnc4[nH]ccc4c3)c2)CCN1CC1=C(c2ccc(Cl)cc2)CC(C)(C)CC1` [Example 5, N-((4-((((S)-1,4-dioxan-2-yl)methyl)amino)-3-nitrophenyl)sulfonyl)-2-((1H-pyrrolo[2,3-b]pyridin-5-yl)oxy)-4-((R)-4-((4′-chloro-5,5-dimethyl-3,4,5,6-tetrahydro[1,1′-biphenyl]-2-yl)methyl)-3-methylpiperazin-1-yl) benzamide] are 1.54 nM, 2.75 nM and greater than 1000 nM.
